Assay results from publication PMC7663272, “Discovery of Tricyclic Pyranochromenone as Novel Bruton’s Tyrosine Kinase Inhibitors with In Vivo Antirheumatic Activity” (International Journal of Molecular Sciences, 2020).

Tests used:
CYP3A4 = molecular target: T1, CYP3A4 (Homo sapiens, UniProt P08684); assay: P450-Glo CYP inhibition assay, CYP3A4; format: in vitro ADME
T1 construct: purchased Promega V9920
Method: (§1) The potential for CYP450 inhibition (CYP1A2, 2C9, 2C19, 2D6, and […]) was assessed using Promega P450-Glo^TM CYP450 assay systems. Luciferin-ME served as the substrate for CYP1A2, and the inhibitor α-naphthoflavone was used as a positive control. Luciferin-H was used as the substrate for CYP2C9, and the inhibitor sulfaphenazole was used as a positive control. Luciferin-H EGE was selected as the substrate for CYP2C19, whereas the inhibitor amitriptyline served as a positive control. Luciferin-ME EGE was used as the substrate for CYP2D6, whereas the inhibitor quinidine served as a positive control. Luciferin-BE was used as the substrate for CYP3A4, whereas the inhibitor ketoconazole was used as a positive control. The assays were performed using the excitation and emission wavelengths recommended by the manufacturer. Briefly, a CYP enzyme and a P450-Glo™ substrate were combined in potassium phosphate (0.1 M KPO4) buffer, with or without a test compound of interest, and […]. The reaction was initiated by adding two volumes of 2 times concentrated NADPH regeneration system. […] Luminescence was subsequently measured using a Tecan Infinite M1000 PRO microplate reader (Tecan Group Ltd., Switzerland). The percent inhibition was calculated relative to that of the positive control at a fixed concentration. […]

CYP1A2 = molecular target: T2, CYP1A2 (Homo sapiens, UniProt P05177); assay: P450-Glo CYP inhibition assay, CYP1A2; format: in vitro ADME
T2 construct: purchased Promega V9770
T2 sequence (P05177 1-516): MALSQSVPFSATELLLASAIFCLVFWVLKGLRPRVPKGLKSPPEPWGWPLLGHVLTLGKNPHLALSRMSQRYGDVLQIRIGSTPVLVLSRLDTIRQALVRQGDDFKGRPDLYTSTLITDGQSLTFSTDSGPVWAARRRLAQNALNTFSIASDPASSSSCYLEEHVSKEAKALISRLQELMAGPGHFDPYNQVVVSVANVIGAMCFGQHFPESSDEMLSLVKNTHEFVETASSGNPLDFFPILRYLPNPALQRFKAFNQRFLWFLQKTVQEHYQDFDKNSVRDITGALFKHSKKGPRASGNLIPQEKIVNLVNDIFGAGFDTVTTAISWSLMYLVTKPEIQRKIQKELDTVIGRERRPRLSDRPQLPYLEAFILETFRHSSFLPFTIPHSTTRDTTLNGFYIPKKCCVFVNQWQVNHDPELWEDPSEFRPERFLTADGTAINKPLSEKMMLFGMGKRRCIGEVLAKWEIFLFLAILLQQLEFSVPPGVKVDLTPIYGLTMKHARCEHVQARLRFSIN
Method: as §1

BMX = molecular target: T3, BMX (Homo sapiens, UniProt P51813); assay: HotSpot kinase enzymatic assay, BMX; format: biochemical
T3 construct: purchased Reaction Biology Corporation
T3 sequence (P51813 1-675): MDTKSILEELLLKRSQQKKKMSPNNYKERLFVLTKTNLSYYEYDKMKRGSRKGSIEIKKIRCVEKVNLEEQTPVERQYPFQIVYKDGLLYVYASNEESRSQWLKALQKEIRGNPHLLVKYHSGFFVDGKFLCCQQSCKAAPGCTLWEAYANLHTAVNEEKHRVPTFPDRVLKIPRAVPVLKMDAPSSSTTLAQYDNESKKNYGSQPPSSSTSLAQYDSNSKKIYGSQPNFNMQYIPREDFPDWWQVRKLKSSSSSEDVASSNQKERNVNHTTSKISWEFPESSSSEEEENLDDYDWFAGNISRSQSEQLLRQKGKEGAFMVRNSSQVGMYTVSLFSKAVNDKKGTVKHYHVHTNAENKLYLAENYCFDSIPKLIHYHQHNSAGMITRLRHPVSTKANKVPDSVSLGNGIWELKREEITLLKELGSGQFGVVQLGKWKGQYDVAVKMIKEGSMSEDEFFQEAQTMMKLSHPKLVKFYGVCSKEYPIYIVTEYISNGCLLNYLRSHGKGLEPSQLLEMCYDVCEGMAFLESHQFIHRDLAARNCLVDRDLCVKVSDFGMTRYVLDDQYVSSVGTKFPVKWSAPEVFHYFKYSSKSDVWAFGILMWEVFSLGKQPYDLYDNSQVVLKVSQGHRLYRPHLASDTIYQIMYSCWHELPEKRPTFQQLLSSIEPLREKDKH
Method: Therefore, efforts have focused on developing new compounds with good selectivity profiles. […] Compound 8 was selective against BTK. The biochemical activities of compound 8 differed among TEC family kinases. […] The inhibitory potential of compound 8 differed between members of the EGFR family. […] The inhibitory activity of compound 8 against JAK3 was also low.
Kinase enzymatic assays for BTK, BMX, TXK, TEC, ITK, EGFR, ERBB2, ERBB4, and JAK3 were performed at Reaction Biology Corporation (www.reactionbiology.com, Malvern, PA, USA) using the HotSpot assay platform. Briefly, specific kinase/substrate pairs and the required cofactors were prepared in a reaction buffer comprising 20 mM HEPES (pH 7.5), 10 mM MgCl2, 1 mM EGTA, 0.02% Brij35, 0.02 mg/mL BSA, 0.1 mM Na3VO4, 2 mM DTT, and 1% DMSO. The compounds were added to the reaction mixture and allowed to incubate. Approximately 20 min later, a mixture of ATP (Sigma-Aldrich, St. Louis, MO, USA) and ^33P ATP (PerkinElmer, Waltham, MA, USA) was added to the reaction mixture at a final concentration of 10 μM. The reactions were performed at room temperature for 120 min; subsequently, the reactions were spotted onto P81 ion exchange filter papers (Whatman Inc., Maidstone, UK). Any unbound phosphate was removed by thoroughly washing the filter papers with 0.75% phosphoric acid. […]

[1] = % inhibition of human CYP isozymes at 10 μM

T1 sequence (P08684 whole entry): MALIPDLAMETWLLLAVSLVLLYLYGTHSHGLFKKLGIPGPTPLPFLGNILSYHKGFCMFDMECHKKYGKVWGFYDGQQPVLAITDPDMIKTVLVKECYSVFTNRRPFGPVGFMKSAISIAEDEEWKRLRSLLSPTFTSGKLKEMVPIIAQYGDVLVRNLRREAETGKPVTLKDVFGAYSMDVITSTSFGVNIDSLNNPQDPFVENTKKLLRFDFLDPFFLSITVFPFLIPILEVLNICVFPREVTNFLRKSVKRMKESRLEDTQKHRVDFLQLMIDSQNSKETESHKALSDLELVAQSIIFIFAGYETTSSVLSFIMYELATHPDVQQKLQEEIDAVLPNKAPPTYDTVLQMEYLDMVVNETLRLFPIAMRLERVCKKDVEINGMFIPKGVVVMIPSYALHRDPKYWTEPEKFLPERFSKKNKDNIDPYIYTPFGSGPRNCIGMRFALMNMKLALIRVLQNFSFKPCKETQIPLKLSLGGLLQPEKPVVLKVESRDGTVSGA

C=CC(=O)O[C@H]1Cc2cc3ccc(=O)oc3cc2OC1(C)C [Compound 8, (7S)-(+)-Acrylic acid, 8,8-dimethyl-2-oxo-6,7-dihydro-2H,8H-pyrano [3,2-g]chromen-7-yl ester]
CYP3A4 inhibition (in words) (CYP3A4): rarely inhibited | CYP inhibition 3A4 (CYP3A4; [1]): <1% | CYP1A2 inhibition (in words) (CYP1A2): rarely inhibited | CYP inhibition 1A2 (CYP1A2; [1]): <1% | inhibitory activity against BMX (in words) (BMX): strong inhibitory activity | inhibition at 10 µM (BMX; 10 µM, mean of two experiments): 95.4%
